Patent US10799605B2 (3B PHARMACEUTICALS GMBH, priority 2014, dated 2020)
Like-named read-outs stand apart in the source and are kept apart here.

Assays:
[1] = Plasma stability assay, mouse plasma; assay type: in vitro ADME
Protocol: The plasma stability assay was performed to measure the degradation of compounds of the present invention in plasma. This is an important characteristic of a compound as compounds, with the exception of pro-drugs, which rapidly degrade in plasma generally show poor in vivo efficacy.
The plasma was spiked with a 10 mM analyte solution in dimethyl sulfoxide to a final concentration of 10 μM, vortexed, and aliquotted to 50 μl samples. Two aliquots were stored at −20° C. until further treatment. Another two aliquots were incubated using an Eppendorf Thermomixer at 37° C. for 1, 4, and 24 hours. Sample clean-up was performed using a protein precipitation plate (Phenomenex Strata Impact, 64722-1-324-1) and using acetonitrile as precipitation agent. […] An aliquot of 10 μl was diluted with 90 μl 0.1% aqueous trifluoroacetic acid solution. The determination of the analyte in the clean sample solutions was performed on a Thermo TSQ Quantum Ultra triple quadrupole mass spectrometer equipped with a thermo Surveyor HPLC. The chromatographic separation was carried out on a Phenomenex Kinetex XB-C18 HPLC column (50×2 mm, […] particle size) with gradient elution using a mixture of 0.01% trifluoroacetic acid and 0.05% formic acid in water as eluent A and methanol as eluent B (20% B to 100% in 8 min, 400 μl/min, 40° C.). For mass spectrometric detection the selected reaction monitoring (SRM) was used.
Quantitation was performed by external matrix calibration using an internal standard.

Y2 (h) = Y2 (h) (Homo sapiens (Human), UniProt P49146); test: ExpresSProfile: neuropeptide Y receptor 2, agonist radioligand; assay type: binding; settings: Test Concentration 1.0E−05 M
CXCR2 (IL-8B) (h) = CXCR2 (IL-8B) (h) (Homo sapiens (Human), UniProt P25025); test: ExpresSProfile: C-X-C chemokine receptor type 2, agonist radioligand; assay type: binding; settings: Test Concentration 1.0E−05 M
alpha 1 (non-selective) = test: ExpresSProfile: alpha1 adrenergic receptor, antagonist radioligand; assay type: binding; settings: Test Concentration 1.0E−05 M
5-HT7 (h) = 5-HT7 (h) (Homo sapiens (Human), UniProt P34969); test: ExpresSProfile: 5-hydroxytryptamine receptor 7, agonist radioligand; assay type: binding; settings: Test Concentration 1.0E−05 M
GABA (non-selective) = test: ExpresSProfile: GABA, agonist radioligand; assay type: binding; settings: Test Concentration 1.0E−05 M
kappa (KOP) = kappa (KOP) (Rattus norvegicus, UniProt P34975); test: ExpresSProfile: kappa opioid receptor, agonist radioligand; assay type: binding; settings: Test Concentration 1.0E−05 M
A2A (h) = A2A (h) (Homo sapiens (Human), UniProt P29274); test: ExpresSProfile: adenosine receptor 2A, agonist radioligand; assay type: binding; settings: Test Concentration 1.0E−05 M
CB1 (h) = CB1 (h) (Homo sapiens (Human), UniProt P21554); test: ExpresSProfile: cannabinoid receptor 1, agonist radioligand; assay type: binding; settings: Test Concentration 1.0E−05 M
D2S (h) = D2S (h) (Homo sapiens (Human), UniProt P14416); test: ExpresSProfile: dopamine receptor 2S, antagonist radioligand; assay type: binding; settings: Test Concentration 1.0E−05 M
ETA (h) = ETA (h) (Homo sapiens (Human), UniProt P25101); test: ExpresSProfile: endothelin receptor A, agonist radioligand; assay type: binding; settings: Test Concentration 1.0E−05 M
5-HT transporter (h) = 5-HT transporter (h) (Homo sapiens (Human), UniProt P31645); test: ExpresSProfile: 5-HT transporter, antagonist radioligand; assay type: binding; settings: Test Concentration 1.0E−05 M
M3 (h) = M3 (h) (Homo sapiens (Human), UniProt P20309); test: ExpresSProfile: muscarinic receptor 3, antagonist radioligand; assay type: binding; settings: Test Concentration 1.0E−05 M
MC4 (h) = MC4 (h) (Homo sapiens (Human), UniProt P32245); test: ExpresSProfile: melanocortin receptor 4, agonist radioligand; assay type: binding; settings: Test Concentration 1.0E−05 M
Y1 (h) = Y1 (h) (Homo sapiens (Human), UniProt P25929); test: ExpresSProfile: neuropeptide Y receptor 1, agonist radioligand; assay type: binding; settings: Test Concentration 1.0E−05 M
Cl-channel (GABA-gated) = test: ExpresSProfile: Cl-channel, antagonist radioligand; assay type: binding; settings: Test Concentration 1.0E−05 M
B2 (h) = B2 (h) (Homo sapiens (Human), UniProt P30411); test: ExpresSProfile: bradykinin receptor 2, agonist radioligand; assay type: binding; settings: Test Concentration 1.0E−05 M
[2] = read-out: % Inhibition of Control Specific Binding
[3] = read-out: % of Control Specific Binding 1st
[4] = read-out: % of Control Specific Binding 2nd
[5] = read-out: % of Control Specific Binding Mean

Y2 (h), sequence (P49146 whole entry): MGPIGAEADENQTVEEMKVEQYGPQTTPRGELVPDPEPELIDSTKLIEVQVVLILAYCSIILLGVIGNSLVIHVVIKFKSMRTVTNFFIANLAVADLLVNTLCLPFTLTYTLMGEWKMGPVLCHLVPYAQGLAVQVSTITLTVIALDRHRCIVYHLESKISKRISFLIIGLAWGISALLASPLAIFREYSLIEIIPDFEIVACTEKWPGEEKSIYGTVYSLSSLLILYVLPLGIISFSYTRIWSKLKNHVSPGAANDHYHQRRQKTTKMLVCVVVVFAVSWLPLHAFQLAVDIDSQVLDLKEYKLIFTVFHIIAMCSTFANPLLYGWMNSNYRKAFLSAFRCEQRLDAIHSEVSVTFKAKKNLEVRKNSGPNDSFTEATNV
Y1 (h), sequence (P25929 whole entry): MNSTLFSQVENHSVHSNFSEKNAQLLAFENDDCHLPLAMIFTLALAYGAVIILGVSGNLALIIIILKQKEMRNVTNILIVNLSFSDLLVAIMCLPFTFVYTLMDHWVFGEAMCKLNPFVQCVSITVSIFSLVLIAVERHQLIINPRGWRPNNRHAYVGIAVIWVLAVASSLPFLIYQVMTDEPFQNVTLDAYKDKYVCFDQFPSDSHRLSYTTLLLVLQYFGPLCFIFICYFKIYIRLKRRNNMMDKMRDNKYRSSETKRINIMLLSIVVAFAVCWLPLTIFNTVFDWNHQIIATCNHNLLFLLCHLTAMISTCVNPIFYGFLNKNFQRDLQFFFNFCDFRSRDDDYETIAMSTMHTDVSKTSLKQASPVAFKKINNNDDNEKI
ETA (h), sequence (P25101 21-427): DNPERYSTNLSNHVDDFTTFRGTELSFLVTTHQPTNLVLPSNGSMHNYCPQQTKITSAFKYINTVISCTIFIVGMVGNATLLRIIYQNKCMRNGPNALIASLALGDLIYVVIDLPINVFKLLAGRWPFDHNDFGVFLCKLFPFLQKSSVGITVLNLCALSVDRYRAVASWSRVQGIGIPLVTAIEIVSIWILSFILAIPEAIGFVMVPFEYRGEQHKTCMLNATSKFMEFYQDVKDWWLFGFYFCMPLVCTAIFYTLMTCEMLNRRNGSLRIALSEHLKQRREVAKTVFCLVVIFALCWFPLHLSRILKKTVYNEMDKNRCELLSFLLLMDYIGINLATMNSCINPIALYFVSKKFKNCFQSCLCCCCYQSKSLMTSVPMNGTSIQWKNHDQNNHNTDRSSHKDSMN
M3 (h), sequence (P20309 whole entry): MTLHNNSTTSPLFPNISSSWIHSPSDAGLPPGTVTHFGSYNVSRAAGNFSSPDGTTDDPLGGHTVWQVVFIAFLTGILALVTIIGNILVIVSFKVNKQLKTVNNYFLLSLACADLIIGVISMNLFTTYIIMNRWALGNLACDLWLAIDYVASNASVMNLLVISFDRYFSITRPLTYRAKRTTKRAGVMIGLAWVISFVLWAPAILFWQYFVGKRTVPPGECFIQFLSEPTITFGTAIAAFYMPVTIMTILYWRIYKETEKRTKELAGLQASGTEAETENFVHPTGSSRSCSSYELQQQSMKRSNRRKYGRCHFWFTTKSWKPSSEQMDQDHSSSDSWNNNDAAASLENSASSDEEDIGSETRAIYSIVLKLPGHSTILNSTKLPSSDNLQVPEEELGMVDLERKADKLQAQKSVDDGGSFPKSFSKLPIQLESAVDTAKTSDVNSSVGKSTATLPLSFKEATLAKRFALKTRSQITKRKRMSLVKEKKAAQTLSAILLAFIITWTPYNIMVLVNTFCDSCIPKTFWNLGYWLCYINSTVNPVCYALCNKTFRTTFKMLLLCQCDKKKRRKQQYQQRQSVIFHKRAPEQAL
CXCR2 (IL-8B) (h), sequence (P25025 whole entry): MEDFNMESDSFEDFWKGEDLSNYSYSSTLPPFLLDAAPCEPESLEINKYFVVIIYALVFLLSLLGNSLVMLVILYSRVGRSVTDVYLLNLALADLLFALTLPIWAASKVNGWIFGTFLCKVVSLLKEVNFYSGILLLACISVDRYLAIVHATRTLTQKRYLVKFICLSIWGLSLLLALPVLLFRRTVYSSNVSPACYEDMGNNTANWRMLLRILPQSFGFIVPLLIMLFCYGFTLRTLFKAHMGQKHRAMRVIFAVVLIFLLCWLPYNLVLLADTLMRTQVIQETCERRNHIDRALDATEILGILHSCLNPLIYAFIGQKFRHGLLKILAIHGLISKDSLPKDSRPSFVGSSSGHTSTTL
5-HT7 (h), sequence (P34969 whole entry): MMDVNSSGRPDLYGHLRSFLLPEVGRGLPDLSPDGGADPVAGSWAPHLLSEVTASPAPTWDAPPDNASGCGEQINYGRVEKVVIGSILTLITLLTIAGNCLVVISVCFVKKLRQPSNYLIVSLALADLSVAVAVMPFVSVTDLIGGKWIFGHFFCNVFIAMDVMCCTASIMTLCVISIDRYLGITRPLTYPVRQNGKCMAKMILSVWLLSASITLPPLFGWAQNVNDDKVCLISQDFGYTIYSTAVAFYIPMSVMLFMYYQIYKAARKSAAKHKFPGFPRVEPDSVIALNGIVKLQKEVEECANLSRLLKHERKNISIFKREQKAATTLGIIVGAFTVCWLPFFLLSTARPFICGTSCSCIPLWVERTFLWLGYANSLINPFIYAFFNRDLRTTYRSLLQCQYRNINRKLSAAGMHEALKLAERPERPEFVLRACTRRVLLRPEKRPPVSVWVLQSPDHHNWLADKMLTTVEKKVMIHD
MC4 (h), sequence (P32245 whole entry): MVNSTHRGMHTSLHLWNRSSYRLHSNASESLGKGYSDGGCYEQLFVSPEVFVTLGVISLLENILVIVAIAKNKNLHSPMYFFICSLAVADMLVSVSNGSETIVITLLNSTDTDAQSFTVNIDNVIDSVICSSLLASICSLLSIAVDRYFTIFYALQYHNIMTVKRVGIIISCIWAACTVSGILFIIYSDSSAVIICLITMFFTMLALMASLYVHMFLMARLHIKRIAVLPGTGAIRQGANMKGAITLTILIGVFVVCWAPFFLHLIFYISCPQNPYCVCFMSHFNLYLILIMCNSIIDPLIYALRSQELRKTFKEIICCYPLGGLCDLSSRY
5-HT transporter (h), sequence (P31645 whole entry): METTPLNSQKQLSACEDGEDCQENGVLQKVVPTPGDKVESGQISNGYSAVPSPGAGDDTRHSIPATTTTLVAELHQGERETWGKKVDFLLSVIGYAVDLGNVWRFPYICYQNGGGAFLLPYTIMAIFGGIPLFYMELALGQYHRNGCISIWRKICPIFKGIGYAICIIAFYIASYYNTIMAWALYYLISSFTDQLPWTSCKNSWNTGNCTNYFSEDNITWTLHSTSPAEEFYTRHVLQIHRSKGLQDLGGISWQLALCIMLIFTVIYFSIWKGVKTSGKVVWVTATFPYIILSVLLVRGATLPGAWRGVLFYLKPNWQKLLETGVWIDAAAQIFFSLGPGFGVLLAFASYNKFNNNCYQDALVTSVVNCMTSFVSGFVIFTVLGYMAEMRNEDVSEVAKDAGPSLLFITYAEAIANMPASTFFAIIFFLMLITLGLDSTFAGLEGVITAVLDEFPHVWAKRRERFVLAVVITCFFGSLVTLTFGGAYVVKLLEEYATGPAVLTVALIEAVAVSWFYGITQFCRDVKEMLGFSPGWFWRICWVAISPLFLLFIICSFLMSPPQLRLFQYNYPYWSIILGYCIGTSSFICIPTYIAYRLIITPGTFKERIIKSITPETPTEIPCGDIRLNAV
A2A (h), sequence (P29274 whole entry): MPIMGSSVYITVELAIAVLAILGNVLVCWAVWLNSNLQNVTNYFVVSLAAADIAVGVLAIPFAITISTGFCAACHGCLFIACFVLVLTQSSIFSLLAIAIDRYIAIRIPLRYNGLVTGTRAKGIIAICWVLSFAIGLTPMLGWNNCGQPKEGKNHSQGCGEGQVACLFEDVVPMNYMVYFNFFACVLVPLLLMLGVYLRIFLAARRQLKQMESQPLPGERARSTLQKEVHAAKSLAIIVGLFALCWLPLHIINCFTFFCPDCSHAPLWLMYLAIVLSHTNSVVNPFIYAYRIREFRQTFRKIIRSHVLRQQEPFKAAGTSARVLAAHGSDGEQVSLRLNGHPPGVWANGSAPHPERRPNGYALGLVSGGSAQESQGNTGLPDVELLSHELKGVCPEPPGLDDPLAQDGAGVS
D2S (h), sequence (P14416 other isoform, or with tags, fused parts or gaps): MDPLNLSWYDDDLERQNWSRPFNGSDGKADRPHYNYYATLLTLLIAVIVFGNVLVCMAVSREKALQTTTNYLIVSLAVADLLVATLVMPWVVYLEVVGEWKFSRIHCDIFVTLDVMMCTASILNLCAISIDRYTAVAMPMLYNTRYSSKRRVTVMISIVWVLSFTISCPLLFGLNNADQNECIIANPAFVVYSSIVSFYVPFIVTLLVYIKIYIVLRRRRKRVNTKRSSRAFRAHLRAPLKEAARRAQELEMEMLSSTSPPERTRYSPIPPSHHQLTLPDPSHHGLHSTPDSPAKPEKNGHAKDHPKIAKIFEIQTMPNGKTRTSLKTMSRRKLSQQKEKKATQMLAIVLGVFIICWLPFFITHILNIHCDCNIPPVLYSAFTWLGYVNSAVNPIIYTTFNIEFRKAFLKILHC
CB1 (h), sequence (P21554 whole entry): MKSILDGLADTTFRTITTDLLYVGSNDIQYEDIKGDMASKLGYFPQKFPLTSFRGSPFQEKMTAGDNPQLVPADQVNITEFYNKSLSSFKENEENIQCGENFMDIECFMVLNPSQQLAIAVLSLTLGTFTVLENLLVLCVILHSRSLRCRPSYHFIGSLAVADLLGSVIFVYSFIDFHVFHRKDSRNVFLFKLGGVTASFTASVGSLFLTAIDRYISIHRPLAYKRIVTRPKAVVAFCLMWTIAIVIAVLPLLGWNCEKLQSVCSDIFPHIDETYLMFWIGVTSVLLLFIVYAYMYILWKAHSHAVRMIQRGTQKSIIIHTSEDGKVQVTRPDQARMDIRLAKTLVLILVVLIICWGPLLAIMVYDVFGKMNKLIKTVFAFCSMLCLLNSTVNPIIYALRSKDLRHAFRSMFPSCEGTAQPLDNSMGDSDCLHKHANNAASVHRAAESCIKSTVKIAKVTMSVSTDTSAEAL

Structure (SMILES): COc1cccc(OC)c1-c1cc(C(=O)NC2(C(=O)O)C3CC4CC(C3)CC2C4)nn1-c1ccc(C(=O)N(C)CCCN(C)CCCN(C)C(=O)CN2CCN(CC(=O)O)CCN(CC(=O)O)CCN(CC(=O)O)CC2)cc1C(C)C (stereo not drawn) [(IIIa), 2-{[1-{4-[(3-{[3-(DOTA-methyl-amino)-propyl]-methyl-amino}-propyl)-methyl-carbamoyl]-2-isopropyl-phenyl}-5-(2,6-dimethoxy-phenyl)-1H-pyrazole-3-carbonyl]-amino}-adamantane-2-carboxylic acid]
- stability in mouse plasma [1]: highly stable
- % remaining after 24 h incubation, Mouse plasma ([1]; 10 μM, 37° C., 24 h): >80%
- inhibition at 10 µM (Y2 (h); [2]): -23%
- remaining activity at 10 µM (Y2 (h); [3]): 130%
- remaining activity at 10 µM (Y2 (h); [4]): 116%
- remaining activity at 10 µM (Y2 (h); [5]): 123%
- inhibition at 10 µM (CXCR2 (IL-8B) (h); [2]): -9%
- remaining activity at 10 µM (CXCR2 (IL-8B) (h); [3]): 119%
- remaining activity at 10 µM (CXCR2 (IL-8B) (h); [4]): 99.6%
- remaining activity at 10 µM (CXCR2 (IL-8B) (h); [5]): 109%
- % Inhibition of Control Specific Binding (alpha 1 (non-selective)): −9%
- % of Control Specific Binding 1st (alpha 1 (non-selective)): 106.2%
- % of Control Specific Binding 2nd (alpha 1 (non-selective)): 111.1%
- % of Control Specific Binding Mean (alpha 1 (non-selective)): 108.7%
- inhibition at 10 µM (5-HT7 (h); [2]): 2%
- remaining activity at 10 µM (5-HT7 (h); [3]): 96.6%
- remaining activity at 10 µM (5-HT7 (h); [4]): 99.7%
- remaining activity at 10 µM (5-HT7 (h); [5]): 98.2%
- % Inhibition of Control Specific Binding (GABA (non-selective)): −6%
- % of Control Specific Binding 1st (GABA (non-selective)): 101.9%
- % of Control Specific Binding 2nd (GABA (non-selective)): 109.9%
- % of Control Specific Binding Mean (GABA (non-selective)): 105.9%
- inhibition at 10 µM (kappa (KOP); [2]): -2%
- remaining activity at 10 µM (kappa (KOP); [3]): 111%
- remaining activity at 10 µM (kappa (KOP); [4]): 92.3%
- remaining activity at 10 µM (kappa (KOP); [5]): 102%
- % Inhibition of Control Specific Binding (A2A (h)): 5%
- % of Control Specific Binding 1st (A2A (h)): 104.2%
- % of Control Specific Binding 2nd (A2A (h)): 85.6%
- % of Control Specific Binding Mean (A2A (h)): 94.9%
- inhibition at 10 µM (CB1 (h); [2]): 11%
- remaining activity at 10 µM (CB1 (h); [3]): 96%
- remaining activity at 10 µM (CB1 (h); [4]): 82.5%
- remaining activity at 10 µM (CB1 (h); [5]): 89.3%
- inhibition at 10 µM (D2S (h); [2]): -9%
- remaining activity at 10 µM (D2S (h); [3]): 113%
- remaining activity at 10 µM (D2S (h); [4]): 105%
- remaining activity at 10 µM (D2S (h); [5]): 109%
- inhibition at 10 µM (ETA (h); [2]): -10%
- remaining activity at 10 µM (ETA (h); [3]): 114%
- remaining activity at 10 µM (ETA (h); [4]): 105%
- remaining activity at 10 µM (ETA (h); [5]): 110%
- inhibition at 10 µM (5-HT transporter (h); [2]): -13%
- remaining activity at 10 µM (5-HT transporter (h); [3]): 103%
- remaining activity at 10 µM (5-HT transporter (h); [4]): 123%
- remaining activity at 10 µM (5-HT transporter (h); [5]): 113%
- inhibition at 10 µM (M3 (h); [2]): -23%
- remaining activity at 10 µM (M3 (h); [3]): 122%
- remaining activity at 10 µM (M3 (h); [4]): 124%
- remaining activity at 10 µM (M3 (h); [5]): 124%
- inhibition at 10 µM (MC4 (h); [2]): -8%
- remaining activity at 10 µM (MC4 (h); [3]): 113%
- remaining activity at 10 µM (MC4 (h); [4]): 104%
- remaining activity at 10 µM (MC4 (h); [5]): 108%
- inhibition at 10 µM (Y1 (h); [2]): -34%
- remaining activity at 10 µM (Y1 (h); [3]): 128%
- remaining activity at 10 µM (Y1 (h); [4]): 141%
- remaining activity at 10 µM (Y1 (h); [5]): 134%
- % Inhibition of Control Specific Binding (Cl-channel (GABA-gated)): 2%
- % of Control Specific Binding 1st (Cl-channel (GABA-gated)): 106.5%
- % of Control Specific Binding 2nd (Cl-channel (GABA-gated)): 89.1%
- % of Control Specific Binding Mean (Cl-channel (GABA-gated)): 97.8%
- inhibition at 10 µM (B2 (h); [2]): 11%
- remaining activity at 10 µM (B2 (h); [3]): 98.7%
- remaining activity at 10 µM (B2 (h); [4]): 79.9%
- remaining activity at 10 µM (B2 (h); [5]): 89.3%
